US20260250247A1, “NOVEL INDOLINE DERIVATIVE AND USE THEREOF” (CK REGEON INC., priority 2023, published 2026)
pIC50: −log10 of the molar value.

Tests used:
[1] = target: CXXC5-Dvl interaction (PDZ domain of Dvl (dishevelled) protein / PTD-DBM-FITC); test: CXXC5-Dvl binding inhibition, competition of PTD-DBM-FITC on plate-bound Dvl PDZ domain; details: purified Dvl PDZ domain 5 μg/mL, 10 μM PTD-DBM-FITC, compounds 0.001-100 μM, FITC fluorescence
Protocol: 5 μg/mL of the purified PDZ domain ofDvl (dishevelled) protein was attached to the bottom of a 96-well black immunoplate and left in a chamber at 4° C. for one day. The next day, each well was washed with PBS and 10 μM PTD-DBM-FITC was added. After incubation at room temperature for 3 hours, each well was washed with PBS. Each well was treated with the indoline derivatives at various concentrations (100, 10, 1, 0.1, 0.01, and 0.001 μM) in 100 μL of PBS. After washing with a buffer, fluorescence was measured by FITC using a microplate reader. A competition binding curve showing the degree of CXXC5-Dvl PPI inhibition was constructed using the GraphPad Prism software, and the IC50 value was calculated. […] CK090), and the intermediate compound 5-cyanoindirubin as controls.

3T3-L1 pre-adipocytes = test: Inhibition of adipocyte differentiation and lipid accumulation, Oil Red O; type: cell-based; details: 3T3-L1, compound 1 μM, MDI-induced differentiation for 8 days, Oil Red O eluted, absorbance 544 nm; for activity at 1 µM: Mus musculus, 192 h, read-out: lipid accumulation rate
Protocol: 3T3-L1 cells were seeded in a 6-well plate at a density of […] cells per well. The cells were grown to 100% confluency in Dulbecco's modified Eagle's medium (DMEM) supplemented with 10% bovine calf serum (BCS; GIBCO). Two days after reaching 100% confluency, differentiation was induced with or without treatment with the indoline compound at a concentration of 1 μM in DMEM containing 10% fetal bovine serum (FBS; GIBCO) and MDI (520 μM methylisobutylxanthine (IBMX; Sigma-Aldrich), 1 μM dexamethasone (Sigma-Aldrich), and 5 μM insulin (GIBCO)). On day 3, the medium was replaced with DMEM containing 10% FBS and 5 μM insulin with or without the indoline compound, and then with a fresh identical medium every 2 days. After differentiation for 8 days, the culture medium was removed, and the cells were washed with PBS and then fixed with 10% formaldehyde for 1 hour. After removing the 10% formaldehyde, the cells were washed thoroughly with distilled water. After that, 60% isopropanol was added and immediately then removed. After washing with distilled water, lipid droplets were stained with an Oil Red O dye solution for 20 minutes and then washed with distilled water. The cells were counterstained with Mayer's hematoxylin. Oil Red O images were visualized using a bright-field microscope (Nikon TE-2000U). To quantify the accumulated lipids, Oil Red O was eluted by adding isopropanol, and absorbance was measured spectrophotometrically at 544 nm using a multi-plate reader.
As A3051 (KY19382) and A3334, self-developed and synthesized materials were used. As BIO, or GSK 3 Inhibitor IX, also known as 6-bromoindirubin-3′-oxime, HY-10580 was purchased commercially.
In FIG. 2, the undifferentiated group (Un Diff) refers to undifferentiated adipocytes, or preadipocytes that had not been induced to differentiate, and the differentiated group (Diff) refers to fully differentiated adipocytes.

| pIC50 [1] | Compound | activity at 1 µM (3T3-L1 pre-adipocytes) [%] | lipid accumulation rate (3T3-L1 pre-adipocytes) [%] |
| --- | --- | --- | --- |
| 7.97 | N#Cc1ccc2c(c1)/C(=C1/Nc3ccccc3/C1=N\OCCCN1CCCCC1)C(=O)N2 [Example 7, (2Z,3E)-2′-oxo-3-((3-(piperidin-1-yl)propoxy)imino)-[2,3′-biindolinylidene]-5′-carbonitrile] | 33.6 |  |
| 7.76 | N#Cc1ccc2c(c1)/C(=C1/Nc3ccccc3/C1=N\OCCCN1CCCC1)C(=O)N2 [Example 8, (2Z,3E)-2′-oxo-3-((3-(pyrrolidin-1-yl)propoxy)imino)-[2,3′-biindolinylidene]-5′-carbonitrile] | 25.1 |  |
| 4.27 | O=C1Nc2ccccc2/C1=C1/Nc2ccccc2C1=O [Indirubin, (Z)-[2,3′-biindolinylidene]-2′,3-dione, reference compound] | 96.4 |  |
| 8.20 | N#Cc1ccc2c(c1)/C(=C1/Nc3ccccc3/C1=N\OCCCN1CCSCC1)C(=O)N2 [Example 12, (2Z,3E)-2′-oxo-3-((3-thiomorpholinopropoxy)imino)-[2,3′-biindolinylidene]-5′-carbonitrile] | 27.4 |  |
| 7.91 | CN1CCN(CCCO/N=C2/C(=C3/C(=O)Nc4ccc(C#N)cc43)Nc3ccccc32)CC1 [Example 11, (2Z,3E)-3-((3-(4-methylpiperazin-1-yl)propoxy)imino)-2′-oxo-[2,3′-biindolinylidene]-5′-carbonitrile] | 24.1 |  |
| 7.35 | N#Cc1ccc2c(c1)/C(=C1/Nc3ccccc3/C1=N\OCCN1CCCC1C(=O)O)C(=O)N2 (stereo not shown) [Example 15, (2-((((2Z,3E)-5′-cyano-2′-oxo-[2,3′-biindolinidene]-3-ylidene)amino)oxy)ethyl)proline] | 24.8 |  |
| 5.37 | Cc1cc2c(cc1Cl)NC(=O)/C2=C1\Nc2ccccc2\C1=N/OCCN1CCN(C)CC1 [CK090, (2Z,3E)-6′-chloro-5′-methyl-3-((2-(4-methylpiperazin-1-yl)ethoxy)imino)-[2,3′-biindolinylidene]-2′-one, reference compound] |  |  |
| 7.43 | N#Cc1ccc2c(c1)/C(=C1/Nc3ccccc3/C1=N\OCCN1CCCC1)C(=O)N2 [Example 6, (2Z,3E)-2′-oxo-3-((2-(pyrrolidin-1-yl)ethoxy)imino)-[2,3′-biindolinylidene]-5′-carbonitrile] | 25.8 |  |
|  | COc1ccc2c(c1)/C(=C1/Nc3ccccc3/C1=N\O)C(=O)N2 [Example A3334, reference compound] |  | 78.7 |
| 8.03 | N#Cc1ccc2c(c1)/C(=C1/Nc3ccccc3/C1=N\OCCN1CCCCC1)C(=O)N2 [Example 5, (2Z,3E)-2′-oxo-3-((2-(piperidin-1-yl)ethoxy)imino)-[2,3′-biindolinylidene]-5′-carbonitrile] | 26.2 |  |
| 7.69 | N#Cc1ccc2c(c1)/C(=C1/Nc3ccccc3/C1=N\OCCCN1CCNCC1)C(=O)N2 [Example 9, (2Z,3E)-2′-oxo-3-((3-(piperazin-1-yl)propoxy)imino)-[2,3′-biindolinylidene]-5′-carbonitrile] | 25.4 |  |
|  | O=C1Nc2cc(Br)ccc2/C1=C1/Nc2ccccc2/C1=N\O [BIO, 6-bromoindirubin-3′-oxime, reference compound] |  | 79.4 |
| 8.58 | N#Cc1ccc2c(c1)/C(=C1/Nc3ccccc3/C1=N\OCCN1CCS(=O)(=O)CC1)C(=O)N2 [Example 13, (2Z,3E)-3-((2-(1,1-dioxidothiomorpholino)ethoxy)imino)-2′-oxo-[2,3′-biindolinidene]-5′-carbonitrile] | 26.6 |  |
| 7.90 | N#Cc1ccc2c(c1)/C(=C1/Nc3ccccc3/C1=N\OCCCN1CCOCC1)C(=O)N2 [Example 10, (2Z,3E)-3-((3-morpholinopropoxy)imino)-2′-oxo-[2,3′-biindolinylidene]-5′-carbonitrile] | 24.3 |  |
